Eleven molecules from PubChem BioAssay (NCI) can be followed below.

Common to all, as to assay: inhibition of tumour cell growth, NCI panel, 48 h
Experiment [1] relates to OVCAR-3 ovarian.
Experiment [2] concerns NCI-H460 lung.
For experiment [3], the system named is OVCAR-8 ovarian.
Experiment [4] has as its system NCI-H226 lung.
The subject of experiment [5] is A549 NSCLC.
In experiment [6] the test system is OVCAR-4 ovarian.
The test system of experiment [7] is IGROV1 ovarian.
The test system of experiment [8] is SK-OV-3 ovarian.
Experiment [9] deals with RPMI-8226 leukemia.
Experiment [10] deals with NCI-H23 lung.

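Each compound was tested at five concentrations against cells in 96-well plates for 48 hours. The concentration for 50% growth inhibition is given as GI50. TGI denotes the concentration required for complete inhibition of growth.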 Where only a bound is given, the exact number is not on record here.

In the case of `CN1CCN(CCCCCOc2cc(O)c3c(=O)cc(-c4ccccc4)oc3c2)CC1`, the GI50 in [1] was 3.45 µM; in experiment [2] it was 3.27 µM; in experiment [3], 15.7 µM; in experiment [4], 22 µM; in experiment [5], 8.18 µM; in experiment [6], 19.1 µM. In addition, the GI50 was 2.41 µM in experiment [7] and 3.62 µM in [8]. For the same molecule, the TGI came out at 8.1 µM in [1]; 11.3 µM in experiment [2]; 91.7 µM in experiment [3]; 46.4 µM in experiment [4]; 26.3 µM in [5]; 77.7 µM in [6]. Further, the TGI came out at 5.64 µM in experiment [7] and 16.9 µM in experiment [8].

With `N#Cc1c(-c2ccccc2)nc(SCC(O)CN2CCOCC2)nc1N1CCOCC1` (stereo not drawn), the GI50 in [1] is 15.4 µM; in experiment [9], 7.78 µM; in experiment [2], 7.03 µM; in experiment [10], 37.5 µM; in [3], 11.4 µM; in experiment [4], 7.12 µM. The GI50 in experiment [5] was 6.43 µM; in experiment [6] it was 16.3 µM; in experiment [8] it was 1.87 µM. Besides, the TGI in experiment [1] is over 100 µM; in [9], 41.6 µM; in experiment [2], over 100 µM; in experiment [10], over 100 µM; in [3] it was over 100 µM; in [4], over 100 µM. In addition, the TGI is over 100 µM in experiment [5], over 100 µM in [6] and 12 µM in experiment [8].

For `O=C1CCC2(c3ccccc3)OCC([C@@H](O)c3ccccc3)N12` (stereo partly drawn), the TGI in experiment [1], in [9], in experiment [2], in experiment [10], in [3] and in experiment [5] was over 100 µM in each case. The TGI in experiment [6] and in [7] was over 100 µM each time.

Turning to `Cc1cc(C)c([O-])c(-[n+]2c(-c3ccccc3)cc(-c3ccccc3)cc2-c2ccccc2)c1`, the TGI came out at 12 µM in experiment [1]; 15.8 µM in [2]; 13.7 µM in [10]; 17.7 µM in experiment [3]; 24.9 µM in [4]; 28 µM in experiment [5]. Moreover, the TGI amounted to 18.5 µM in experiment [6], 19.9 µM in experiment [7] and 27.2 µM in [8].

Take `NC(N)=NCCCC(Nc1c2ccccc2nc2ccccc12)C(=O)O` (stereo not drawn): the TGI in experiment [1], in experiment [9], in [2], in experiment [10], in experiment [3] and in [4] was over 100 µM throughout. The figures for the TGI in experiment [5] and in experiment [6] were over 100 µM and 43.4 µM, respectively.

Take `CC(=O)[CH-]C(=O)c1ccccc1.CC(=O)[CH-]C(=O)c1ccccc1.CC(=O)[CH-]C(=O)c1ccccc1.[Cl-].[Hf+4]`: the GI50 in experiment [1] is 13.6 µM; in [9], 34.2 µM; in [2], 38.5 µM; in experiment [10] it was 39.1 µM; in [3], 27.9 µM; in experiment [5], 46.4 µM. In addition, the GI50 in [6] is 86.5 µM; in experiment [7], 47 µM; in [8], 46.1 µM. Also, the TGI in experiment [1], in [9], in experiment [2], in [10], in experiment [3] and in experiment [5] was over 100 µM in each case. In addition, the TGI in [6], in experiment [7] and in [8] was over 100 µM each time.

For `CC(C)(C)c1cc(Cc2ccc(S(C)(=O)=O)cc2)c(O)c(C(C)(C)C)c1`, the TGI came to 25.8 µM in experiment [9]; 30.5 µM in experiment [2]; 31.3 µM in experiment [10]; 28.1 µM in experiment [3]; 24.2 µM in experiment [5]; 28.1 µM in experiment [6]. Also, the TGI in experiment [7] is 28.3 µM; in experiment [8] it was 36.2 µM.

As for `CC1(C)CCC2(C(=O)O)C(O)CC3(C)C(=CCC4C5(C)CCC(OC6OCC(O)C(O)C6OC6OCC(O)C(O)C6OC6OCC(O)C(OC7OC(CO)C(O)C(O)C7O)C6O)C(C)(C)C5CCC43C)C2C1` (stereo not drawn), the TGI in experiment [1] was over 100 µM; in [2] it was over 100 µM; in experiment [10], 49.7 µM; in experiment [3], over 100 µM; in experiment [4], over 100 µM; in experiment [5], over 100 µM. Further, the TGI in [6] is 88.7 µM; in experiment [7] it was over 100 µM; in [8], 40.2 µM.

Take `C=C1CC[C@@](C)(c2cc(Br)c(C)cc2OC(C)=O)[C@H]1C`: the GI50 is 14.6 µM in experiment [1]; 9.55 µM in experiment [9]; 11.3 µM in experiment [2]; 13.9 µM in experiment [10]; 13.2 µM in experiment [3]; 12.3 µM in experiment [5]. Further, the results for the GI50 in experiment [6], in experiment [7] and in experiment [8] were 3.63 µM, 13.2 µM and 16.4 µM, respectively. Besides, the TGI was found to be 29.2 µM in [1]; 24.9 µM in [9]; 25 µM in [2]; 28.2 µM in [10]; 27.8 µM in experiment [3]; 26.5 µM in experiment [5]. The TGI in experiment [6] was 17.4 µM; in experiment [7] it was 29.4 µM; in experiment [8] it was 29.9 µM.

In the case of `CCOC(=O)C1(C)C2=CC=C(O2)C(C)(C)C2=CC=C(O2)C(C)(C)C2=CC=C(O2)C(C)(C)C2=CC=C1O2`, the TGI in experiment [2], in experiment [10], in experiment [3], in experiment [4], in [5] and in experiment [6] was over 100 µM in each case. Also, the TGI in experiment [7] and in experiment [8] was over 100 µM each time.

`Oc1c(Cl)cc(Cl)c(Cl)c1Cc1c(O)c(Cl)cc(Cl)c1Cl`: the GI50 was 1.34 µM in experiment [1]; 0.534 µM in [2]; 0.593 µM in experiment [10]; 0.941 µM in experiment [3]; 2.46 µM in [4]; 1.99 µM in [5]. Also, the GI50 in [6] was 2.52 µM; in experiment [7], 1.87 µM; in experiment [8] it was 2.53 µM. Also, the TGI in experiment [1] worked out at 8.47 µM; in experiment [2], 12.5 µM; in experiment [10], 12 µM; in [3], 16.5 µM; in [4], 13 µM; in experiment [5], 12.9 µM. The TGI worked out at 14 µM in experiment [6], 23.6 µM in experiment [7] and 11.6 µM in [8].
